Here are results for ten compounds from patent US6348454B1, “Syntheses of new isodethiaazacephems and isodethiaazacephams, and use as potent antibacterial agents” (National Science Council, priority 1999, dated 2002).

≈ marks a conversion by molar mass, not a printed value. Where two headings read alike, the source gives them in different places.

Series [1] concerns five pathogenic microorganisms. Put plainly: Antibacterial activity in vitro, summary in words. To be noted: doses as high as 128 μg/mL; Table 1. In kind it is cell-based. As for the experimental part:
(§1) Antimicrob. Agents Chemother. 1978, 14, 807-811] penicillin G [Morris, J. J.; Page, M. I. Intra- and Intermolecular Catalysis in the Aminolysis of Benzylpenicillin. J. Chem. Soc., Perkin Trans 2 1980, 212-219], and 7-(β-phenylacetamido)-3′-desacetoxycephalosporanic acid (±)−2 [Page, M. L.; Proctor, P. Mechanism of β-Lactam Opening in Cephalosporins. J. Am. Chem. Soc. 1984, 106, 3820-3825] in vitro against five pathogenic microorganisms. The doses used were as high as 128 μg/mL.
(§2) The serial broth dilution method was used to study the antibiotic activity [Pursiano, T. A.; Misiek, M.; Leitner, F.; Price, K. E. Effect of Assay Medium on the Antibacterial Activity of Certain Penicillins and Cephalosporins. Antimicrob. Agents Chemother. 1973, 3, 33-39]. The inocula were prepared by use of the heart infusion broth (Difco Laboratories) to make 10^−4 dilutions of the overnight cultures. Tubes of the seeded antibiotic-containing media were incubated at 37° C. for 20 h. The lowest concentration of antibiotic that prevented visible growth of microorganisms was then determined.

Series [2] has as its system S. typhi O-901. Put plainly: Antibacterial activity, serial broth dilution method (MIC). In kind it is cell-based. To be noted: 20 h; for MIC: Salmonella enterica, TYPHI, read-out: Minimal Inhibitory Concentrations; for Minimal Inhibitory Concentrations: S. typhi O-901, average of triplicate determinations, 37° C. As for the experimental part:
as §1, §2

Series [3] deals with Ps. aeruginosa 1101-75. The series is described as above. The class given is cell-based. To be noted: for MIC: read-out: Minimal Inhibitory Concentrations. As for the experimental part:
as §1, §2

Series [4] has as its system E. coli ATCC 39188. The description is as above. The following applies: for MIC: Escherichia coli, read-out: Minimal Inhibitory Concentrations. In kind it is cell-based. Here is the method:
as §1, §2

Series [5] has as its system S. aureus FDA 209P. The series is described as above. To be noted: 20 h; for MIC: Staphylococcus aureus, FDA209P, read-out: Minimal Inhibitory Concentrations. In kind it is cell-based. As for the experimental part:
as §1, §2

Series [6] relates to K. pneumoniae NCTC 418. The description is as above. In kind it is cell-based. The following applies: for MIC: Klebsiella pneumoniae, read-out: Minimal Inhibitory Concentrations. Here is the method:
as §1, §2

Series [7] can be described thus: physchem.
The nature of series [8]: Stability of β-lactams in water at various pH. The following applies: for time within which pH of the aqueous solution changed to ˜1 (destruction of β-lactam ring): initial pH about 4.0; for time the β-lactam ring survived / time within which β-lactam ring was destructed: pH 1.0. Here is the method: In another series of assays, we dissolved isodethiaazacephems (±)−3 and (±)−4 as well as isodethiaazacepham (±)−5 in distilled water (5.0 mg/mL).

Where [9] appears, read: Pseudomonas aeruginosa, 110175, Ps. aeruginosa 1101-75, average of triplicate determinations, 37° C., 20 h.
The mark [10] stands for this setting: ATCC39188, E. coli ATCC 39188, average of triplicate determinations, 37° C., 20 h.
[11] abbreviates: S. aureus FDA 209P, average of triplicate determinations, 37° C.
Setting [12] is: NCTC418, K. pneumoniae NCTC 418, average of triplicate determinations, 37° C., 20 h.
Setting [13] is: Pseudomonas aeruginosa, 110175, 20 h.
Setting [14] is: Ps. aeruginosa 1101-75, average of triplicate determinations, 37° C., 20 h.
The mark [15] stands for this setting: E. coli ATCC 39188, average of triplicate determinations, 37° C., 20 h.
The mark [16] stands for this setting: K. pneumoniae NCTC 418, average of triplicate determinations, 37° C., 20 h.

With `CS(=O)(=O)OC1=C(C(=O)O)N2C(=O)[C@@H](NC(=O)Cc3ccccc3)[C@H]2CN1` (racemic) [(±)-3, (6RS,7SR)-3-Methanesulfonyloxy-8-oxo-7-(phenylacetamido)-1,4-diazabicyclo[4.2.0]oct-2-ene-2-carboxylic Acid], the melting point is 115 to 117 °C. In series [1], the “antibacterial activity (in words)” value is reported as “promising antimicrobial activities”. The MIC in series [2] amounted to 1.2 µg/mL (≈ 3.03 µM). Moreover, the MIC in series [3] (setting [9]) was 4.38 µg/mL (≈ 11.1 µM). Further, the MIC in series [4] (setting [10]) worked out at 0.95 µg/mL (≈ 2.4 µM). Also, the MIC in [5] (setting [11]) turned out to be 0.07 µg/mL (≈ 0.177 µM). Moreover, the MIC in [6] (setting [12]) turned out to be 0.68 µg/mL (≈ 1.72 µM). In addition, in series [7] (water), the solubility was 21 mg/mL (≈ 53100 µM). Besides, in series [8] (distilled water, 5.0 mg/mL), the “initial pH value of the aqueous solution” value was “about 4.0” and the “time within which pH of the aqueous solution changed to ˜1 (destruction of β-lactam ring)” value is on record as “three”. Also, the “time the β-lactam ring survived” value in series [8] was approximately 4 h.

`O=C(Cc1ccccc1)N[C@@H]1C(=O)N2C(C(=O)O)=C(OS(=O)(=O)C(F)(F)F)NC[C@H]12` (racemic) [(±)-4, (6RS,7SR)-3-Trifluoromethanesulfonyloxy-8-oxo-7-(phenylacetamido)-1,4-diazabicyclo[4.2.0]oct-2-ene-2-carboxylic Acid] yielded a melting point of 100 to 102 °C. Besides, in series [1], the “antibacterial activity (in words)” value is listed as “promising antimicrobial activities”. For the same compound, the MIC in [2] worked out at 0.68 µg/mL (≈ 1.51 µM). In addition, the MIC in [3] (setting [9]) amounted to 1.15 µg/mL (≈ 2.56 µM). In [4] (setting [10]), the MIC is 0.09 µg/mL (≈ 0.2 µM). The MIC in series [5] (setting [11]) turned out to be 0.01 µg/mL (≈ 0.0223 µM). Also, in series [6] (setting [12]), the MIC came out at 0.24 µg/mL (≈ 0.534 µM). Besides, the concentration in solution in [7] (water) (solubility) was 27 mg/mL (≈ 60100 µM). In series [8] (distilled water, 5.0 mg/mL), the “initial pH value of the aqueous solution” value was “about 4.0” and the “time within which pH of the aqueous solution changed to ˜1 (destruction of β-lactam ring)” value is reported as “two”. Moreover, the “time the β-lactam ring survived” value in series [8] is listed as approximately 2 h.

`O=C(Cc1ccccc1)N[C@@H]1C(=O)N2C(C(=O)O)=C(O)NC[C@H]12` (racemic) [(±)-10, (6RS,7SR)-3-Hydroxy-8-oxo-7-(phenylacetamido)-1,4-diazabicyclo[4.2.0]-oct-2-ene-2-carboxylic Acid] had a melting point of 140 to 142 °C. Further, the MIC in series [2] was more than 128 µg/mL. Moreover, the MIC in [3] (setting [13]) was more than 128 µg/mL. The MIC in series [4] (setting [10]) was 94.7 µg/mL (≈ 298 µM). Further, the MIC in [5] (setting [11]) was found to be 29.5 µg/mL (≈ 93 µM). In addition, the MIC in series [6] (NCTC418, 20 h) was more than 128 µg/mL. In [7] (pH 6.8, aqueous buffer), the concentration in solution (solubility) came to 35 mg/mL (≈ 110000 µM). In [8] (phosphate buffer (0.10 M, pH 6.8)), the “time stable in phosphate buffer” value is reported as “two”.

Turning to `CS(=O)(=O)OC1=C(C(=O)OCc2ccccc2)N2C(=O)[C@@H](NC(=O)Cc3ccccc3)[C@H]2CN1` (racemic) [(±)-11, Benzyl (6RS,7SR)-3-Methanesulfonyloxy-8-oxo-7-(phenylacetamido)-1,4-diazabicyclo[4.2.0]oct-2-ene-2-carboxylate], in series [1], the “antibacterial activity (in words)” value is given as “do not exhibit antibacterial activity”. Besides, the MIC in [2] was more than 128 µg/mL; in series [3] (setting [13]), more than 128 µg/mL; in [4] (ATCC39188, 20 h), more than 128 µg/mL; in [5] it was more than 128 µg/mL; in series [6] (NCTC418, 20 h) it was more than 128 µg/mL.

In the case of `O=C(Cc1ccccc1)N[C@@H]1C(=O)N2C(C(=O)OCc3ccccc3)=C(OS(=O)(=O)C(F)(F)F)NC[C@H]12` (racemic) [(±)-12, Benzyl (6RS,7SR)-3-Trifluoromethanesulfonyloxy-8-oxo-7-(phenylacetamido)-1,4-diazabicyclo[4.2.0]oct-2-ene-2-carboxylate], the “antibacterial activity (in words)” value in [1] was “do not exhibit antibacterial activity”. The MIC is more than 128 µg/mL in series [2]; more than 128 µg/mL in [3] (setting [13]); more than 128 µg/mL in [4] (ATCC39188, 20 h); more than 128 µg/mL in series [5]; more than 128 µg/mL in [6] (NCTC418, 20 h).

On to `CS(=O)(=O)C1=C(O)NC[C@@H]2[C@H](NC(=O)Cc3ccccc3)C(=O)N12` (racemic) [(±)-17, (6RS,7SR)-3-Hydroxy-8-oxo-7-(phenylacetamido)-1,4-diazabicyclo[4.2.0]oct-2-ene-2-methylsulfone], for which the “Minimal Inhibitory Concentrations” value in series [2] is more than 128 µg/mL. Also, the “time within which β-lactam ring was destructed” value in series [8] is recorded as “two”.

As to `CC1=C(C(=O)O)N2C(=O)C(NC(=O)Cc3ccccc3)C2SC1` (single isomer, unassigned; (+)) [(+)-2, 7-(β-phenylacetamido)-3′-desacetoxycephalosporanic acid, reference compound], the “Minimal Inhibitory Concentrations” value in [2] was determined as 24.50 µg/mL; in series [3] (setting [14]), 100.0 µg/mL; in series [4] (setting [15]), 13.13 µg/mL; in [5] (setting [11]) it was 0.64 µg/mL; in [6] (setting [16]), 2.98 µg/mL.

As to `CO/N=C(\C(=O)N[C@@H]1C(=O)N2C(C(=O)O)=C(COC(C)=O)CS[C@H]12)c1csc(N)n1` [cefotaxime, reference compound], the MIC came out at 20.3 µg/mL (≈ 44.6 µM) in series [2]; 62.4 µg/mL (≈ 137 µM) in [3] (setting [9]); 0.25 µg/mL (≈ 0.549 µM) in [4] (setting [10]); 0.08 µg/mL (≈ 0.176 µM) in [5] (setting [11]); 10.2 µg/mL (≈ 22.5 µM) in series [6] (setting [12]).

Turning to `CC1(C)S[C@@H]2[C@H](NC(=O)Cc3ccccc3)C(=O)N2[C@H]1C(=O)O` [penicillin G, reference compound], the “Minimal Inhibitory Concentrations” value in [2] is more than 128 µg/mL; in series [4] (setting [15]) it was 2.30 µg/mL; in series [5] (setting [11]) it was 0.40 µg/mL.

Take “(2RS,6RS,7SR)- and (2SR,6RS,7SR)-2-Methanesulfonyl-3,8-dioxo-7-(phenylacetamido)-1,4-diazabicyclo[4.2.0]octane-2-carboxylic Acid [(±)-5]”: in series [1], the “antibacterial activity (in words)” value is listed as “profound antibacterial activity”. Moreover, the “Minimal Inhibitory Concentrations” value worked out at 65.30 µg/mL in series [2]; 120.0 µg/mL in [3] (setting [14]); 97.17 µg/mL in series [4] (setting [15]); 48.50 µg/mL in series [5] (setting [11]); 51.02 µg/mL in series [6] (setting [16]). For the same compound, the “time within which β-lactam ring was destructed” value in series [8] (acidic solution) is not above 3 h. The same compound came in with a time of decarboxylation in [8] (basic solution, pH 12) not above 20 min. Also, in series [8] (distilled water, 5.0 mg/mL), the “initial pH value of the aqueous solution” value is on record as “about 2.0”. Further, in series [8] (distilled water, 5.0 mg/mL), the “time within which pH of aqueous solution changed from 2.0 to 6.0 (decarboxylation to (±)−17)” value was 5-6 days.
